Data set [1] relates to carrageenan-induced rat paw edema. Briefly: carrageenan-induced rat paw edema method (anti-inflammatory activity). It counts as in vivo. The settings on record: compared with standard drug indomethacin. As for the experimental part: For the experimental results described below, healthy male albino rats (200 g-220 g) were used for the study. The animals were kept in standard plastic animal cages in groups of six animals each with 12 hour light and dark cycle at 25±2° C. The rats were fed on standard rat chow and provided water ad libitum. The animals were acclimatized to laboratory conditions for a week prior to experiments. Anti-inflammatory activity of the synthesized compounds S1-S18 was determined by the carrageenan-induced rat paw edema method. The compounds were tested at equimolar oral dose and were compared with the standard drug indomethacin. […]. Three compounds, namely S14, S7 and S3 containing R=2,4,5-trimethoxyphenyl; […].
Anti-inflammatory activity was determined by a carrageenan-induced rat paw edema method. Male rats weighing 200 g were housed in a room with a controlled temperature and 12 hour light/12 hour dark cycle, housed in a specific pathogen free environment, and fed standard rodent chow and given water ad libitum. Each treatment group and vehicle group consisted of six randomly assigned animals. Compounds were administered p.o. suspension. Paw edema was induced by intradermal injection of 50 μL of 1% carrageenan into the sub plantar region of the right hind paw, after one hour of compound administration. […] The control group received only the vehicle. Increase in paw edema was compared with that in the control group and percent inhibition was calculated taking the values in the control group as 0% inhibition.
Background: Carrageenan injected into the paw causes an acute inflammation.

Data set [2] concerns ethanol-induced gastric ulcer. Briefly: ethanol induced ulcer model (gastro-protective activity: ulcer index, mucus, PAS staining, histology). It counts as in vivo, rat. The source says: Gastric mucus plays crucial role in gastro-protection. […] The mucus was formed from mucin-type glycoprotein. The mucus gel adhering to the gastric mucosal surface defends the epithelium beneath against acid, pepsin and necrotizing agents, such as ethanol and indomethacin. […] Gastric wall mucus coating might be relieved in the repair of the damaged gastric epithelium. […] The rats were grouped into five groups (n=6). Group I and II received saline solution and served as negative-control and ulcer-control, respectively. […] The animals were sacrificed 1 hour later under anesthesia and their stomachs were quickly removed for further studies. Periodic acid-Schiff (PAS) staining was used to observe the glycogen level in control and pretreated animals. […] Ethanol-induced gastric ulcers result from several mechanisms, including reduction of gastric mucus and impaired mucosal permeability, and leads to increased leakage of hydrogen ions from the lumen and decreased transluminal membrane potential difference. With regard to the gross gastric lesion evaluation, the stomach of each rat was opened along the greater arc and washed with saline water to remove gastric contents. Gastric ulcers appear as elongated bands on the gastric mucosa with hemorrhagic lesions being parallel to the long axis of the stomach. The mucosa was assessed for damage under dissecting microscope (1.8×) and a planimeter was used to measure the ulcers area (hemorrhagic lesions). The length and width of each lesion were measured and the sum of the area of all lesions for each stomach was expressed as the ulcer area (mm^2). To determine mucus production of the gastric mucosa, the gastric mucosa of each rat was gently scraped using a glass slide and the mucus obtained was weighed using a precision electronic balance. For the histologic studies, gastric tissues were collected and fixed in 10% formalin after sacrifice. Then, each sample was embedded in paraffin and cut into 5 μm thick slices for morphological and pathological evaluation. Tissue sections were stained with hematoxylin and eosin (H & E) and examined under a light microscope.

The test system of the next data set is COX-1. Briefly: Western blot of COX-1 expression in rat gastric mucosa damaged by ethanol. It counts as in vivo. The settings on record: ethanol induced model, S3 25.6 mg/kg, indomethacin 25 mg/kg. For orientation: In western blotting, separated proteins are transferred to a membrane and probed.
Data set [3] in a line: LD50 determination by the Karber method. The conditions noted are these: in vivo, mouse, 24 hours observation. On the procedure:
The LD50 of compound S3 was determined by the Karber method. […] For LD50 determination, an observation was made for each mouse for 24 hours and symptoms of toxicity and rate of mortality in each group were noted. At the end of the study period, expired animals were counted for the calculation of LD50. The following method was used for the determination of LD50: LD50=LD100−Σ×(a×b)/n, where n is the total number of animals in a group, a is the difference between two successive doses of administered extract/substance, b is the average number of dead animals in two successive doses, and LD100 is the lethal dose causing 100% death of all test animals.

Another data set relates to gastric mucosa. The settings on record: rat, in vivo.
The subject of a further data set is COX-2. Briefly: Western blot of COX-2 expression in rat gastric mucosa damaged by ethanol. The conditions noted are these: ethanol induced model, S3 25.6 mg/kg, indomethacin 25 mg/kg.
For data set [4], the system named is malondialdehyde (MDA) content. The conditions noted are these: rat, in vivo.
Experimental: The mixture was heated at 95° C. for 60 minutes. After cooling, the reactants were supplemented with 5 mL of a mixture of n-butanol:pyridine (15:1 v/v), shaken vigorously for 1 minute and centrifuged for 10 minutes at 4000 rpm. The supernatant organic layer was taken out and absorbance was measured at 532 nm on a UV spectrophotometer. The results were expressed as nmol MDA/100 mg tissue. Data are expressed as mean±S.E.M., and the student's t-test was applied to determine the significance of the difference between the standard group and rats treated with the test compounds. The lipid peroxidation was measured as nanomoles of MDA content/100 mg of liver and kidney tissue.
For data set [5], the system named is nociceptive response on hot plate. In words: hot plate test (analgesic activity). In kind it is in vivo. Further details: concentration or dose not given beside the values. The conditions noted are these: hot plate 58° C.; mice; 120 min after injection. As for the experimental part:
Male albino Swiss mice (25 g body weight) were divided into various groups (n=6). Each mouse was initially placed on a hot plate thermostatically maintained at 58° C. […] This time was considered as the control reaction time. A cut-off time of 60 s was used to avoid damage to the paws. To test the analgesic activity of the compounds, each group of mice was treated with one dose of the test compounds. The reaction time was then retested at 0 hour and 120 min after injection (each animal acted as its own control). The percentage changes in the reaction were then calculated.
(Hot-plate and tail-flick tests time the reaction to a heat stimulus.)

[6] abbreviates: pretreated rats, ethanol induced ulcer.

SMILES strings stand for the structures.

Experimental for COX-2: A Western blot was performed for COX-1. […] For the Western blot analysis, 20 μg of protein was transferred to PVDF membranes, blocked in 5% skim milk in TBS buffer 1% Tween 20, and then incubated overnight with the COX-1, COX-2 and β-actin, followed by HRP-conjugated anti-rat/rabbit/goat antibodies for 2 hours at 25° C. Bands were visualized with the Luminata Western Chemiluminescent HRP Substrates and densitometric analysis of bands were assessed using LI-COR C-DiGit blot scanners.

Take `COc1ccc2[nH]c(C)c(CC(=O)N/N=C/c3cccc([N+](=O)[O-])c3)c2c1` [Compound S3, 2-(5-methoxy-2-methyl-1H-indol-3-yl)-N′-[(E)-(3-nitrophenyl)methylidene] acetohydrazide]: the “anti-inflammatory activity (in words)” value in data set [1] is “most potent compounds with significant anti-inflammatory activity”. For the same compound, the “histology of gastric tissue (in words)” value in data set [2] (S3 25.6 mg/kg, indomethacin 25 mg/kg, ethanol induced ulcer) is “normal glandular pattern with mild inflammation and infiltration of leucocytes”. In data set [2] (setting [6]), the “PAS staining of gastric mucosa (in words)” value is recorded as “substantially continuous PAS-positive mucous gel layer” and the “mucus production by gastric mucosa (in words)” value is given as “increased gradually”. Also, the “Ulcer index Mean ± SEM” value in data set [2] (pretreatment orally (S3 25.6 mg/kg, indomethacin 25 mg/kg) 1 hour before ethanol 95% 20 mL/kg, rats) worked out at 2.83±0.87 mm^2. Moreover, in the data set on COX-1, the “COX-1 expression / inhibition by Western blot (in words)” value is “weak COX-1 expression”. Moreover, the LD50 at 24 h in data set [3] worked out at 35 mg/kg. Also, the “ulcerogenic activity (in words)” value with gastric mucosa was “less ulcerogenic than the reference drug indomethacin”. In addition, the “COX-2 expression / inhibition by Western blot (in words)” value with COX-2 was “potent COX-2 inhibition”. The “lipid peroxidation (in words)” value in data set [4] was “maximum reduction in gastric ulceration and lipid peroxidation”. The “analgesic activity (percentage change in reaction time)” value in data set [5] amounted to 61.36%.

One may read the LD50 as the dose expected to kill half of the subjects tested.

The record behind these values is patent US9808443B1, “Cyclooxygenase inhibitors” (KING SAUD UNIVERSITY, priority 2016, dated 2017).
